Experimental data published in patent publication US20230329236A1, “HERBICIDAL PYRIMIDINE DERIVATIVES” (MoA Technology Limited, priority 2020, published 2023).

Test system: Lolium multiflorum (LOLMU)
Assay: Post-emergence glasshouse test, visual injury, LOLMU
Type: in vivo
Details: 336 h, Table 3, post-emergence, 125 g/ha, 14±1 days post application
Procedure: (§1) Seeds of a variety of test species are grown in a sandy loam soil mixture, Lolium multiflorum (LOLMU), Amaranthus retroflexus (AMARE), Echinochloa crus-gaffi (ECHCG), Veronica persica (VERPE), Glycine max (GLXMA), Oryza sativa (ORYSA), Zea mays (ZEAMX), spring wheat (TRZAS), Ipomoea hederacea (IPOHE), Ipomoea purpurea (PHBPU), Stellaria media (STEME), Solanum nigrum (SOLNI), Digitaria sanguinalis (DIGSA), Setaria italica (SETIT), Alopecurus myosuroides (ALOMY) and Avena fatua (AVEFA).
(§2) After sowing, at growth stage BBCH 12-14 (post-emergence), the plants are sprayed with an aqueous spray solution derived from the formulation of the technical active ingredient in acetone/water (50:50) solution containing 0.5% Tween 20 (polyoxyethlyene sorbitan monolaureate, CAS RN 9005-64-5). The test compounds are applied at the required concentration of active ingredient in g/ha. The test plants are then grown in a glasshouse under controlled environmental conditions and watered regularly as required. After 14±1 days post application (for post-emergence test), the test is evaluated by assessing the percentage damage caused to the plants in comparison with the untreated plots. The biological activities for post-emergence testing are shown below (Table 3 and Table 4) as a % visual injury.

SMILES	pest or weed control at 125 g/ha [%]
Cc1cc(-c2cnc(NC3CC3)nc2C2CC2)on1 [Compound 84]	50
Cc1cc(-c2cnc(NCc3cccc(F)c3)nc2C(F)(F)F)on1 [Compound 126]	0

Same assay, conditions: 336 h, Table 3, post-emergence, 250 g/ha, 14±1 days post application

SMILES	pest or weed control at 250 g/ha [%]
Cc1cc(-c2cnc(NC3CC3)nc2C2CC2)on1 [Compound 84]	70

Same assay, conditions: 336 h, Table 3, post-emergence, 500 g/ha, 14±1 days post application

SMILES	pest or weed control at 500 g/ha [%]
Cc1cc(-c2cnc(NCc3cccnc3)nc2C(C)(C)C)on1 [Compound 75]	70
Cc1cc(-c2cnc(NCc3ccccc3F)nc2C(C)C)on1 [Compound 55]	40
Cc1cc(-c2cnc(NCC3COCCO3)nc2C2CC2)on1 (centres unmarked) [Compound 74]	70
Cc1cc(-c2cnc(NC3CC3)nc2-c2ccc(C)o2)on1 [Compound 44]	30
Cc1cc(-c2cnc(NCCN3CCCC3=O)nc2C2CC2)on1 [Compound 30]	0
Cc1cc(-c2cnc(N3CCN(c4ncccn4)CC3)nc2C(C)C)on1 [Compound 70]	0
Cc1cc(-c2cnc(N3CCCCCC3)nc2C(C)C)on1 [Compound 49]	0
Cc1cc(-c2cnc(NCc3cccnc3)nc2-c2ccc(C)o2)on1 [Compound 22]	0
CC(=O)N1CCN(c2ncc(-c3cc(C)no3)c(-c3ccncc3)n2)CC1 [Compound 59]	50
Cc1cc(-c2cnc(N3CCOCC3)nc2-c2ccc(C)o2)on1 [Compound 72]	0
Cc1cc(-c2cnc(N3CCC(O)CC3)nc2C(C)C)on1 [Compound 76]	0
COc1ccc(CCNc2ncc(-c3cc(C)no3)c(C3CC3)n2)cc1OC [Compound 78]	40

Same assay, conditions: 336 h, Table 3, post-emergence, 1000 g/ha, 14±1 days post application

SMILES	pest or weed control at 1000 g/ha [%]
Cc1cc(-c2cnc(NCc3cccc(F)c3)nc2C(C)C)on1 [Compound 17]	0
Cc1cc(-c2cnc(NCC3CCCO3)nc2-c2ccc(C)o2)on1 (centres unmarked) [Compound 86]	0

Test system: Echinochloa crus-gaffi (ECHCG)
Assay: Post-emergence glasshouse test, visual injury, ECHCG
Type: in vivo, Echinochloa crus-galli
Details: 336 h, Table 3, post-emergence, 125 g/ha, 14±1 days post application
Procedure: as §1, §2

SMILES	pest or weed control at 125 g/ha [%]
Cc1cc(-c2cnc(NC3CC3)nc2C2CC2)on1 [Compound 84]	90
Cc1cc(-c2cnc(NCc3cccc(F)c3)nc2C(F)(F)F)on1 [Compound 126]	70

Same assay, conditions: 336 h, Table 3, post-emergence, 250 g/ha, 14±1 days post application

SMILES	pest or weed control at 250 g/ha [%]
Cc1cc(-c2cnc(NC3CC3)nc2C2CC2)on1 [Compound 84]	100

Same assay, conditions: 336 h, Table 3, post-emergence, 500 g/ha, 14±1 days post application

SMILES	pest or weed control at 500 g/ha [%]
Cc1cc(-c2cnc(NCc3cccnc3)nc2C(C)(C)C)on1 [Compound 75]	40
Cc1cc(-c2cnc(NCc3ccccc3F)nc2C(C)C)on1 [Compound 55]	70
Cc1cc(-c2cnc(NCC3COCCO3)nc2C2CC2)on1 (centres unmarked) [Compound 74]	80
Cc1cc(-c2cnc(NC3CC3)nc2-c2ccc(C)o2)on1 [Compound 44]	20
Cc1cc(-c2cnc(NCCN3CCCC3=O)nc2C2CC2)on1 [Compound 30]	70
Cc1cc(-c2cnc(N3CCN(c4ncccn4)CC3)nc2C(C)C)on1 [Compound 70]	20
Cc1cc(-c2cnc(N3CCCCCC3)nc2C(C)C)on1 [Compound 49]	60
Cc1cc(-c2cnc(NCc3cccnc3)nc2-c2ccc(C)o2)on1 [Compound 22]	50
CC(=O)N1CCN(c2ncc(-c3cc(C)no3)c(-c3ccncc3)n2)CC1 [Compound 59]	0
Cc1cc(-c2cnc(N3CCOCC3)nc2-c2ccc(C)o2)on1 [Compound 72]	30
Cc1cc(-c2cnc(N3CCC(O)CC3)nc2C(C)C)on1 [Compound 76]	30
COc1ccc(CCNc2ncc(-c3cc(C)no3)c(C3CC3)n2)cc1OC [Compound 78]	80

Same assay, conditions: 336 h, Table 3, post-emergence, 1000 g/ha, 14±1 days post application

SMILES	pest or weed control at 1000 g/ha [%]
Cc1cc(-c2cnc(NCc3cccc(F)c3)nc2C(C)C)on1 [Compound 17]	80
Cc1cc(-c2cnc(NCC3CCCO3)nc2-c2ccc(C)o2)on1 (centres unmarked) [Compound 86]	0

Test system: Veronica persica (VERPE)
Assay: Post-emergence glasshouse test, visual injury, VERPE
Type: in vivo
Details: 336 h, Table 3, post-emergence, 125 g/ha, 14±1 days post application
Procedure: as §1, §2

SMILES	pest or weed control at 125 g/ha [%]
Cc1cc(-c2cnc(NC3CC3)nc2C2CC2)on1 [Compound 84]	60
Cc1cc(-c2cnc(NCc3cccc(F)c3)nc2C(F)(F)F)on1 [Compound 126]	100

Same assay, conditions: 336 h, Table 3, post-emergence, 250 g/ha, 14±1 days post application

SMILES	pest or weed control at 250 g/ha [%]
Cc1cc(-c2cnc(NC3CC3)nc2C2CC2)on1 [Compound 84]	100

Same assay, conditions: 336 h, Table 3, post-emergence, 500 g/ha, 14±1 days post application

SMILES	pest or weed control at 500 g/ha [%]
Cc1cc(-c2cnc(NCc3cccnc3)nc2C(C)(C)C)on1 [Compound 75]	90
Cc1cc(-c2cnc(NCc3ccccc3F)nc2C(C)C)on1 [Compound 55]	99
Cc1cc(-c2cnc(NCC3COCCO3)nc2C2CC2)on1 (centres unmarked) [Compound 74]	90
Cc1cc(-c2cnc(NC3CC3)nc2-c2ccc(C)o2)on1 [Compound 44]	20
Cc1cc(-c2cnc(NCCN3CCCC3=O)nc2C2CC2)on1 [Compound 30]	0
Cc1cc(-c2cnc(N3CCN(c4ncccn4)CC3)nc2C(C)C)on1 [Compound 70]	0
Cc1cc(-c2cnc(N3CCCCCC3)nc2C(C)C)on1 [Compound 49]	30
Cc1cc(-c2cnc(NCc3cccnc3)nc2-c2ccc(C)o2)on1 [Compound 22]	60
CC(=O)N1CCN(c2ncc(-c3cc(C)no3)c(-c3ccncc3)n2)CC1 [Compound 59]	90
Cc1cc(-c2cnc(N3CCOCC3)nc2-c2ccc(C)o2)on1 [Compound 72]	0
Cc1cc(-c2cnc(N3CCC(O)CC3)nc2C(C)C)on1 [Compound 76]	0
COc1ccc(CCNc2ncc(-c3cc(C)no3)c(C3CC3)n2)cc1OC [Compound 78]	99

Same assay, conditions: 336 h, Table 3, post-emergence, 1000 g/ha, 14±1 days post application

SMILES	pest or weed control at 1000 g/ha [%]
Cc1cc(-c2cnc(NCc3cccc(F)c3)nc2C(C)C)on1 [Compound 17]	100
Cc1cc(-c2cnc(NCC3CCCO3)nc2-c2ccc(C)o2)on1 (centres unmarked) [Compound 86]	70

Test system: Amaranthus retroflexus (AMARE)
Assay: Post-emergence glasshouse test, visual injury, AMARE
Type: in vivo
Details: 336 h, Table 3, post-emergence, 125 g/ha, 14±1 days post application
Procedure: as §1, §2

SMILES	pest or weed control at 125 g/ha [%]
Cc1cc(-c2cnc(NC3CC3)nc2C2CC2)on1 [Compound 84]	60
Cc1cc(-c2cnc(NCc3cccc(F)c3)nc2C(F)(F)F)on1 [Compound 126]	95

Same assay, conditions: 336 h, Table 3, post-emergence, 250 g/ha, 14±1 days post application

SMILES	pest or weed control at 250 g/ha [%]
Cc1cc(-c2cnc(NC3CC3)nc2C2CC2)on1 [Compound 84]	80

Same assay, conditions: 336 h, Table 3, post-emergence, 500 g/ha, 14±1 days post application

SMILES	pest or weed control at 500 g/ha [%]
Cc1cc(-c2cnc(NCc3cccnc3)nc2C(C)(C)C)on1 [Compound 75]	98
Cc1cc(-c2cnc(NCc3ccccc3F)nc2C(C)C)on1 [Compound 55]	100
Cc1cc(-c2cnc(NCC3COCCO3)nc2C2CC2)on1 (centres unmarked) [Compound 74]	100
Cc1cc(-c2cnc(NC3CC3)nc2-c2ccc(C)o2)on1 [Compound 44]	70
Cc1cc(-c2cnc(NCCN3CCCC3=O)nc2C2CC2)on1 [Compound 30]	60
Cc1cc(-c2cnc(N3CCN(c4ncccn4)CC3)nc2C(C)C)on1 [Compound 70]	80
Cc1cc(-c2cnc(N3CCCCCC3)nc2C(C)C)on1 [Compound 49]	50
Cc1cc(-c2cnc(NCc3cccnc3)nc2-c2ccc(C)o2)on1 [Compound 22]	60
CC(=O)N1CCN(c2ncc(-c3cc(C)no3)c(-c3ccncc3)n2)CC1 [Compound 59]	0
Cc1cc(-c2cnc(N3CCOCC3)nc2-c2ccc(C)o2)on1 [Compound 72]	90
Cc1cc(-c2cnc(N3CCC(O)CC3)nc2C(C)C)on1 [Compound 76]	80
COc1ccc(CCNc2ncc(-c3cc(C)no3)c(C3CC3)n2)cc1OC [Compound 78]	95

Same assay, conditions: 336 h, Table 3, post-emergence, 1000 g/ha, 14±1 days post application

SMILES	pest or weed control at 1000 g/ha [%]
Cc1cc(-c2cnc(NCc3cccc(F)c3)nc2C(C)C)on1 [Compound 17]	100
Cc1cc(-c2cnc(NCC3CCCO3)nc2-c2ccc(C)o2)on1 (centres unmarked) [Compound 86]	0
